Test results from ChEMBL document CHEMBL2380252, “Optimized method of G-protein-coupled receptor homology modeling: its application to the discovery of novel CXCR7 ligands” (J Med Chem, 2013).

Each compound was assayed against T1, Atypical chemokine receptor 3 (Homo sapiens, UniProt P25106) (assay: Binding affinity to CXCR7 (unknown origin)).
T1 sequence (P25106 whole entry): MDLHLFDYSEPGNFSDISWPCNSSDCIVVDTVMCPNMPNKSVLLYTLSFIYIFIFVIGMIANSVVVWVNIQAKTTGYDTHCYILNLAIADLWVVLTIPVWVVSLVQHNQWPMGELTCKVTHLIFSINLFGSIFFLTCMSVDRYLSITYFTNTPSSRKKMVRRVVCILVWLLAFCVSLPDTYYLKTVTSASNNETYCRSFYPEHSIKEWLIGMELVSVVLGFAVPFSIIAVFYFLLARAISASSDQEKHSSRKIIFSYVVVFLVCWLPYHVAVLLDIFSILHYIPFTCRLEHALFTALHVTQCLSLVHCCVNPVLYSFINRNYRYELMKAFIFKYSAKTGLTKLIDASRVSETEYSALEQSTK

Point of comparison: `O=C(c1cc2c(s1)-c1ccc(Cl)cc1SC2)N1CCC(N2CCCCC2)CC1`, IC50 6.33 µM. Against it:
- COc1ccc2c(c1)c1c(cnn1CC(=O)NCCN(C)C1CCCCC1)c(=O)n2C — lower, < 1 µM
- COc1c(C)cc2cccnc2c1N1CCCN(C(C(=O)N2CCNCC2)c2csc(C(C)C)n2)CC1 (stereo not given) — lower, < 0.1 µM
- CCc1ccc(NC(=O)CSc2nc3ccccc3c(=O)n2CCCC(=O)NCN2CCOCC2)cc1 — within 1.5-fold, 4.74 µM

These compounds were tested against T1, Atypical chemokine receptor 3 (assay: Displacement of [125I]SDF-1alpha from CXCR7 (unknown origin) expressed in CHO cells after 1 hr by TopCount scintillation counting analysis).
Type: cell-based

Point of comparison: `COc1ccccc1C(CNC(=O)c1cc(-c2ccc(Br)cc2)on1)N1CCC(C)CC1` (stereo not given), IC50 1.87 µM. Against it:
- CN(C)c1ccc(/C=C2\SC(N3CCN(CCO)CC3)=NC2=O)cc1 — 2.9-fold higher, 5.36 µM
- Cc1ccc(C(=O)Nc2ncc(CN3CCC(c4ccccc4)C3)s2)cc1 (stereo not given) — 2.3-fold higher, 4.35 µM
- Cc1ccc2[nH]c(=O)c3cc(C(=O)NCCN4CCCCCC4)sc3c2c1 — 3.7-fold higher, 7 µM
- CCOc1cc(NC(=S)NCCCN(C)C)c(OCC)cc1NC(=O)c1ccc(C)cc1 — 5.2-fold higher, 9.79 µM
- Cc1cc(OCC(=O)NC2CCN(Cc3ccccc3)CC2)c2c(C)cc(=O)oc2c1 — within 1.5-fold, 1.49 µM
- CN(Cc1ccccc1NC(=O)/C=C/c1cnn(-c2ccccc2)c1)C1CCCCC1 — 3.1-fold higher, 5.84 µM
- CCN1CCCC1CNC(=O)CN1C(=O)/C(=C/c2ccccc2F)Sc2ccccc21 (stereo not given) — 3.3-fold higher, 6.19 µM
- CCCCN(CC)CCNC(=O)c1ccc(N2CCc3ccccc32)s1 — 2.1-fold higher, 3.89 µM
- CC1CCCCN1CCNC(=O)c1cc2c(s1)-c1ccc(Cl)cc1SC2 (stereo not given) — 2.8-fold higher, 5.27 µM
- O=C(c1ccc(N2CCc3ccccc32)s1)N1CCC(N2CCCCC2)CC1 — 1.7-fold higher, 3.2 µM
- CCC1CCCCN1CCCNC(=O)CSc1cc(=O)n(C)c2ccc(Cl)cc12 (stereo not given) — within 1.5-fold, 2.16 µM
- Cc1ccc2c(c1)-c1onc(C(=O)NCCN3CCCCC3C)c1CO2 (stereo not given) — within 1.5-fold, 2.64 µM
- CCN1CCCC1CNC(=O)c1ccc(-n2ccc3ccccc32)s1 (stereo not given) — 3.6-fold higher, 6.75 µM
- CN(CCCNC(=O)c1cc2c(=O)n(C)c3ccccc3c2s1)Cc1ccccc1 — within 1.5-fold, 2.21 µM
- CC1CCCN(CC(O)COc2ccc3c4c(c(=O)oc3c2)CCC4)C1 (stereo not given) — within 1.5-fold, 1.29 µM
- O=C(NCCCN(Cc1ccco1)C1CCCC1)c1cc2c(s1)-c1ccccc1SC2 — 6.1-fold higher, 11.4 µM
- Cc1ccc2c(c1)-c1onc(C(=O)NCCCN3CC(C)CC(C)C3)c1CO2 (stereo not given) — 1.6-fold higher, 2.92 µM
- CC1CCCCN1CC(O)COc1ccc2c3c(c(=O)oc2c1)CCC3 (stereo not given) — 4.3-fold higher, 8.02 µM
- CCN1CCc2nc3sc(C(=O)N4CCc5ccccc5C4)c(N)c3cc2C1 — 5.3-fold higher, 10 µM
- CCC(C(=O)NCCCN(CC)Cc1ccccc1)n1nc(C)c2sc3ccccc3c2c1=O (stereo not given) — within 1.5-fold, 2.78 µM
